Measured values reported in US20240280594A1, “MULTIWELL PLATE LIPOPHILICITY ASSAY” (Hoffmann-La Roche Inc., priority 2021, published 2024).

Assay: not given
Settings: pH 7.4

Which “CAMDIS FBP LogD” value does the source give for `C[C@@H]1C[C@H]2[C@@H]3CCC4=CC(=O)C=C[C@]4(C)[C@@]3(F)[C@@H](O)C[C@]2(C)[C@@]1(O)C(=O)CO` [Dexamethason] here?
Its value is 1.82.

Which “CAMDIS FBP LogD” value does the source give for `Cn1c(=O)c2[nH]cnc2n(C)c1=O` [Theophyline] here?
The value was −0.16.

Assay: not given
Settings: pH 7.4; cited from earlier work

For `C[C@@H]1C[C@H]2[C@@H]3CCC4=CC(=O)C=C[C@]4(C)[C@@]3(F)[C@@H](O)C[C@]2(C)[C@@]1(O)C(=O)CO` [Dexamethason], which “Literature LogD” value is on record?
Its value is 1.82.

For `CCCC(C)(COC(N)=O)COC(N)=O` [Meprobamate], which “Literature LogD” value is on record?
The value was 0.7.

With `CC(=O)[C@H]1CC[C@H]2[C@@H]3CCC4=CC(=O)CC[C@]4(C)[C@H]3CC[C@]12C` [Progesterone] as the compound, how does the “Literature LogD” value read?
Its value is 3.76.

Which “Literature LogD” value does the source give for `C[C@]12CC[C@H]3[C@@H](CCC4=CC(=O)CC[C@@]43C)[C@@H]1CC[C@@H]2O` [Testosterone] here?
The value was 3.23.

For `Cn1c(=O)c2[nH]cnc2n(C)c1=O` [Theophyline], which “Literature LogD” value is on record?
The value was −0.02.

Which “Literature LogD” value does the source give for `CC(=O)CC(c1ccccc1)c1c(O)c2ccccc2oc1=O` (centres unmarked) [Warfarin] here?
Its value is 1.12.

Same assay, conditions: shake flask, pH 7.4, average literature value; cited from earlier work

Which “Literature LogD” value does the source give for `CCCSc1ccc2nc(NC(=O)OC)[nH]c2c1` [Albendazole] here?
Its value is 3.29.

Which “Literature LogD” value does the source give for `C=CCc1ccccc1OCC(O)CNC(C)C` (centres unmarked) [Alprenolol] here?
The value was 0.88.

Which “Literature LogD” value does the source give for `CN(C)CCC=C1c2ccccc2CCc2ccccc21` [Amitriptyline] here?
The value was 2.79.

For `CN(C)CCCN1c2ccccc2Sc2ccc(Cl)cc21` [Chlorpromazine], which “Literature LogD” value is on record?
The value was 3.16.

For `CN(C)CCCN1c2ccccc2CCc2ccc(Cl)cc21` [Clomipramine], which “Literature LogD” value is on record?
The value was 3.28.

Which “Literature LogD” value does the source give for `O=C(O)Cc1ccccc1Nc1c(Cl)cccc1Cl` [Diclofenac] here?
Its value is 1.14.

For `CC(C(=O)O)c1ccc(-c2ccccc2)c(F)c1` (centres unmarked) [Flurbiprofen], which “Literature LogD” value is on record?
The value was 0.91.

With `COc1ccc(Cl)cc1C(=O)NCCc1ccc(S(=O)(=O)NC(=O)NC2CCCCC2)cc1` [Glyburide] as the compound, how does the “Literature LogD” value read?
The value was 2.19.

For `CC(C)Cc1ccc(C(C)C(=O)O)cc1` (centres unmarked) [Ibuprofen], which “Literature LogD” value is on record?
Its value is 1.27.

With `COc1ccc2c(c1)c(CC(=O)O)c(C)n2C(=O)c1ccc(Cl)cc1` [Indomethacin] as the compound, how does the “Literature LogD” value read?
Its value is 0.76.

Which “Literature LogD” value does the source give for `CC(C(=O)O)c1cccc(C(=O)c2ccccc2)c1` (centres unmarked) [Ketoprofen] here?
The value was −0.23.

With `CC(CCc1ccccc1)NCC(O)c1ccc(O)c(C(N)=O)c1` (centres unmarked) [Labetalol] as the compound, how does the “Literature LogD” value read?
Its value is 1.09.

With `CN1CCCCC1CCN1c2ccccc2Sc2ccc([S+](C)[O-])cc21` (centres unmarked) [Mesoridazine] as the compound, how does the “Literature LogD” value read?
The value was 1.81.

For `COCCc1ccc(OCC(O)CNC(C)C)cc1` (centres unmarked) [Metoprolol], which “Literature LogD” value is on record?
The value was −0.17.

For `Cc1ncc([N+](=O)[O-])n1CCO` [Metronidazole], which “Literature LogD” value is on record?
Its value is −0.07.

For `COCCOC(=O)C1=C(C)NC(C)=C(C(=O)OC(C)C)C1c1cccc([N+](=O)[O-])c1` (centres unmarked) [Nimodipine], which “Literature LogD” value is on record?
Its value is 4.18.

For `CC(=O)Nc1ccc(O)cc1` [Paracetamol], which “Literature LogD” value is on record?
The value was 0.3.

With `O=C1NC(=O)C(c2ccccc2)(c2ccccc2)N1` [Phenytoin] as the compound, how does the “Literature LogD” value read?
Its value is 2.23.

Which “Literature LogD” value does the source give for `C[C@]12C=CC(=O)C=C1CC[C@@H]1[C@@H]2[C@@H](O)C[C@@]2(C)[C@H]1CC[C@]2(O)C(=O)CO` [Prednisolone] here?
Its value is 1.45.

For `CCC1(c2ccccc2)C(=O)NCNC1=O` [Primidone], which “Literature LogD” value is on record?
The value was 0.91.

Assay: physchem
Settings: pH 7.4

Which logD at 90 min does the source give for `CCCSc1ccc2nc(NC(=O)OC)[nH]c2c1` [Albendazole] here?
The logD at 90 min was 3.41.

For `C=CCc1ccccc1OCC(O)CNC(C)C` (centres unmarked) [Alprenolol], which logD at 90 min is on record?
Its logD at 90 min is 1.03.

For `CN(C)CCC=C1c2ccccc2CCc2ccccc21` [Amitriptyline], which logD at 90 min is on record?
The logD at 90 min was 2.87.

For `NC(=O)N1c2ccccc2C=Cc2ccccc21` [Carbamazepine], which logD at 90 min is on record?
Its logD at 90 min is 1.59.

With `CN(C)CCCN1c2ccccc2Sc2ccc(Cl)cc21` [Chlorpromazine] as the compound, how does the logD at 90 min read?
The logD at 90 min was 3.26.

Which logD at 90 min does the source give for `NS(=O)(=O)c1cc(C2(O)NC(=O)c3ccccc32)ccc1Cl` (centres unmarked) [Chlorthalidone] here?
Its logD at 90 min is 0.9.

With `CN(C)CCCN1c2ccccc2CCc2ccc(Cl)cc21` [Clomipramine] as the compound, how does the logD at 90 min read?
Its logD at 90 min is 3.46.

With `O=C(O)Cc1ccccc1Nc1c(Cl)cccc1Cl` [Diclofenac] as the compound, how does the logD at 90 min read?
The logD at 90 min was 1.12.

Which logD at 90 min does the source give for `CC(C(=O)O)c1ccc(-c2ccccc2)c(F)c1` (centres unmarked) [Flurbiprofen] here?
Its logD at 90 min is 0.8.

Which logD at 90 min does the source give for `COC1=CC(=O)C[C@@H](C)[C@]12Oc1c(Cl)c(OC)cc(OC)c1C2=O` [Griseofulvin] here?
The logD at 90 min was 2.19.

For `CC(C)Cc1ccc(C(C)C(=O)O)cc1` (centres unmarked) [Ibuprofen], which logD at 90 min is on record?
The logD at 90 min was 0.97.

With `COc1ccc2c(c1)c(CC(=O)O)c(C)n2C(=O)c1ccc(Cl)cc1` [Indomethacin] as the compound, how does the logD at 90 min read?
Its logD at 90 min is 0.87.

For `CC(CCc1ccccc1)NCC(O)c1ccc(O)c(C(N)=O)c1` (centres unmarked) [Labetalol], which logD at 90 min is on record?
The logD at 90 min was 1.08.

For `CCCC(C)(COC(N)=O)COC(N)=O` [Meprobamate], which logD is on record?
The logD was 0.76.

For `CN1CCCCC1CCN1c2ccccc2Sc2ccc([S+](C)[O-])cc21` (centres unmarked) [Mesoridazine], which logD at 90 min is on record?
Its logD at 90 min is 1.74.

With `COCCc1ccc(OCC(O)CNC(C)C)cc1` (centres unmarked) [Metoprolol] as the compound, how does the logD at 90 min read?
Its logD at 90 min is 0.06.

Which logD at 90 min does the source give for `Cc1ncc([N+](=O)[O-])n1CCO` [Metronidazole] here?
The logD at 90 min was -0.22.

Which logD at 90 min does the source give for `COCCOC(=O)C1=C(C)NC(C)=C(C(=O)OC(C)C)C1c1cccc([N+](=O)[O-])c1` (centres unmarked) [Nimodipine] here?
Its logD at 90 min is 3.95.

For `O=C1NC(=O)C(c2ccccc2)(c2ccccc2)N1` [Phenytoin], which logD at 90 min is on record?
The logD at 90 min was 2.32.

For `C[C@]12C=CC(=O)C=C1CC[C@@H]1[C@@H]2[C@@H](O)C[C@@]2(C)[C@H]1CC[C@]2(O)C(=O)CO` [Prednisolone], which logD at 90 min is on record?
The logD at 90 min was 1.53.

Which logD at 90 min does the source give for `CCC1(c2ccccc2)C(=O)NCNC1=O` [Primidone] here?
Its logD at 90 min is 0.74.

With `CC(=O)CC(c1ccccc1)c1c(O)c2ccccc2oc1=O` (centres unmarked) [Warfarin] as the compound, how does the logD read?
The logD was 0.87.
